Assay results published in patent US5814612A, “Retinol derivatives and uses thereof” (priority 1992, dated 1998).

What was measured:
[1] = tested on: lymph node T cells; assay: Proliferation of anti-CD3 activated lymph node T cells; assay type: cell-based, BALB/c mouse
From the text: Growth curves of lymph node T cells depleted of antigen-presenting cells (FIG. 17A) with and without 10^-6 M retinol at 2×10^5 and 5×10^4 cells/well. (FIG. 17B) Dose-responses elicited by different retinoids in cultures of lymph node T cells depleted of antigen-presenting cells. Also shown are the growth curves of CD4^+ (FIG. 17C) and CD8^+ T lymphocytes (FIG. 17D) in the presence of either retinol, 14HRR, human serum or in their absence.
T lymphocytes, purified as described, 5×10^4 /well, were activated with immobilized anti-CD3 antibody in ITLB medium. The indicated amounts of retinoids or human serum were added at initiation of cultures. […] 14HRR was added every 12 hours. DNA synthesis was measured by a 4 hour pulse with tritiated thymidine. SDs were ≤17%.
Mature T cells were obtained from pooled intestinal, axillary, inguinal and submandibular lymph nodes of 4 to 10-week-old BALB/c mice. To fractionate cells into CD4 and CD8 subsets and at the same time remove APC, a combination of adherence and complement lysis was used as follows:
The cell suspension in a volume of 2 ml was applied to a nylon wool column (40) (0.6 g of washed nylon fibers in the barrel of a 10 ml syringe) and incubated at 37° C. for 40 min. […] The success of the enrichment procedures was monitored cytofluorimetrically using FITC-conjugated anti-CD8 and PE-conjugated anti-CD4. […]
Cells were cultured in serum-free medium, referred to as ITLB, containing RPMI 1640 supplemented with 8×10^-7 M insulin (5 μg/ml), 7×10^-8 M transferrin (5 μg/ml), 2×10^-6 M linoleic acid, 2×10^-6 M delipidated BSA (0.12 mg/ml), 2 mM L-glutamine, 1 mM sodium pyruvate and antibiotics. […] The optimal concentration for stimulation of T cells was determined for each batch of anti-CD3 mAb and Con A. The optimal range of Con A was particularly narrow in serum-free medium (0.5-0.2 μg/ml) and varied with the cell density used. […] Cellular proliferation was determined by [^3 H] thymidine uptake (0.5 uCi/well; New England Nuclear, Boston, Mass.) after the incubation times indicated for each experiment with a 4 hour labeling pulse. […]

[2] = tested on: 5/2 cells; assay: B-cell growth assay ([3H]-thymidine uptake), lymphoblastoid 5/2 cells in serum-free HB101 medium; assay type: cell-based, human
Method: Washed 5/2 cells (5,000/well) were incubated for 72 hours in HB101 medium with the indicated amounts of retinoids. DNA synthesis was measured by [^3 H] thymidine uptake. The measurements were done in triplicate. The SDs were <15%.
In FIGS. 4B to 4D, 5/2 cells were washed twice and seeded at a concentration of 150,000 cells/ml in HB 101 medium. Triplicate samples of 100 μl of cell suspension were removed daily and pulsed for 6 hours with [^3 H] thymidine. Means are shown. The SDs were never >20%.
P3 was purified as described in the Experimental Details section. 5/2 cells (5,000/well) were incubated for 72 hours in HB101 medium and refed with the indicated amount of retinoid daily. DNA synthesis was measured by [^3 H]-thymidine uptake. P3 is bioactive down to a concentration of 10-^8 M (FIG. 8). […] This is due either to chemical instability or to a more rapid metabolic degradation of P3 by the cells.
The human EBV-transformed B-cell line 5/2 was established from the peripheral blood of a healthy donor. The cell line was grown in RPMI 1640 supplemented with 8% fetal calf serum, L-glutamine (2 mM), and antibiotics. The cell line was tested regularly for mycoplasma infections and was consistently negative.
The assay system is a modification of the assay developed by Blazar et al. (12). […] Assays were done in 96 well microtiter plates in a final volume of 200 μl/well or in 25 cm^2 tissue culture flasks. The cells in the microtiter plates were cultured for 72 hours and cell growth was determined by labeling for the last 16 hours with 0.8 μCi/well of [^3 H]thymidine (sp. act. 6.7 Ci/mmol). Growth in the culture flasks was determined in three aliquots of 100 μl taken at 24 hours intervals and cultured in the presence of 0.8 μCi of [^3 H]thymidine for an additional 6 hour period. To determine the viable cell number, nine aliquots per time point were differentially counted in a Neubauer chamber in the presence of trypan blue.

[3] = tested on: 5/2 cells; assay: Growth-supporting activity on 5/2 cells in serum-free ITLB medium; assay type: cell-based, human
Method: The assay was done in 96-well microtiter plates in a final volume of 200 ul/well. The cells were cultured for 72 hours and cell growth determined by [^3 H] thymidine (0.8 μCi/well)labeling for the last 16 hours. Retinoids were added at the indicated concentrations at the initiation of culture and every 24 hours thereafter.
5/2 cells were grown in the absence of retinol in a medium containing the basic RPMI 1640 amino acid/salt mixture, insulin (5 μg/ml), transferrin (5 μg/ml), albumin (0.1%) and linoleic acid (10^-6 M) (ITLB). […] The dose-response curve shown in FIG. 26 indicates an effective concentration of 10^-7 M.

[4] = tested on: lymphoblastoid cells (LCL); settings: cited from earlier work
[5] = tested on: activated human thymocytes; settings: cited from earlier work
[6] = tested on: Hela; assay: Retinol metabolism, Hela; assay type: in vitro ADME, human
Method: Legend: 2.5×10^6 cells were grown overnight in 5 ml RPMI/10% FBS. The FBS was preincubated at room temperature with 14.4 uCi [^3 H] retinol (NEN) for 4h. The cell pellet was washed twice with PBS. The retinoid were extracted according to MClean et al. 90 and separated on an analytical c18 reverse phase column according to FIG. 7. The DPM were determined using an on-line scintillation counter.

Ester (% of taken up retinol) [6]	P3 (% of taken up retinol) [6]	Total cts. [6]	SMILES	stimulation of lymph node T cells [1]	growth of 5/2 cells [2]	minimal effective concentration ([2]; Homo sapiens, B-cell, 72 hours, refed daily, read-out: lowest bioactive concentration (bioactive down to))	restoration of proliferation in absence of retinol [3]	support of growth of LCL in serum-free medium [4]	support of growth of activated human thymocytes [5]
			CC(C=CC=C(C)C(O)CO)=CC=C1C(C)=CCCC1(C)C (centres unmarked) [14HRR, 14-hydroxy-4,14-retro-retinol]	effective over the same dose range as observed for thymocytes	active and capable of replacing retinol	0.01 µM	restores the capacity to proliferate		
			CC1=C(/C=C/C(C)=C/C=C/C(C)=C/C(=O)O)C(C)(C)CCC1 [all-trans retinoic acid]	nearly inert				but not retinoic acid, support the growth of LCL in serum-free medium	The same is true for activated human thymocytes
20%	3%	1.0 × 10^5 cts.	CC1=C(/C=C/C(C)=C/C=C/C(C)=C/CO)C(C)(C)CCC1 [retinol, all-trans retinol]		enable 5/2 cells to grow		restores the capacity to proliferate	support the growth of LCL in serum-free medium	The same is true for activated human thymocytes
